Data reported in patent US20230265151A1, “GIP/GLP1 CO-AGONIST COMPOUNDS” (priority 2020, published 2023).
Read-outs that look alike come from different tables or passages of the source.

How the values were obtained:
Type in all cases: cell-based
hGIPR = biological target: T1, hGIPR (Homo sapiens, UniProt P48546); experiment: Functional cAMP formation (HTRF) in HEK-293 clonal cells expressing hGIPR, 0.1% bovine casein, without or with 1.0% human serum albumin; conditions: 37° C.; for Emax: percent of maximal response to GIP(1-42)NH2, read-out: hGIPR Emax, % ± SEM; for EC50: geometric mean
T1 construct: expressed in transfected cells
T1 sequence (P48546 22-466): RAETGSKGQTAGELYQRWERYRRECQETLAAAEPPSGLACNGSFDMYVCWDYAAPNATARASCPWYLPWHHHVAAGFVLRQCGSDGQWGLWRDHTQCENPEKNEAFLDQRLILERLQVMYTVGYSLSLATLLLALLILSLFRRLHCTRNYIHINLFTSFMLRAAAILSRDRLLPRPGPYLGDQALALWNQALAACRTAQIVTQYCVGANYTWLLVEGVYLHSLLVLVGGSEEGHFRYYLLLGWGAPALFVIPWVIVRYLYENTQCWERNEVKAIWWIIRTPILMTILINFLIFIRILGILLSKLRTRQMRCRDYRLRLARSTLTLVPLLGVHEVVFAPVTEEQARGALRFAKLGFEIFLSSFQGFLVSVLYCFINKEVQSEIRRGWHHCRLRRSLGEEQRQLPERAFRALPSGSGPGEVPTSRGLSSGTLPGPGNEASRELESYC
In short: (§1)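 Cells were stimulated with peptide for 30 min at 37° C, then intracellular cAMP was measured by competitive HTRF (665/620 nm ratio) and converted to nM using a cAMP standard curve. Relative EC50 and Emax came from four-parameter logistic fits of percent maximal response against peptide concentration.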

hGCGR = biological target: T2, hGCGR (Homo sapiens, UniProt P47871); experiment: Functional cAMP formation (HTRF) in HEK-293 clonal cells expressing hGCGR, 0.1% bovine casein, without or with 1.0% human serum albumin
T2 construct: expressed in transfected cells
In short: as §1

hGLP-1R = hGLP-1R (Homo sapiens, UniProt P43220); experiment: Functional cAMP formation (HTRF) in HEK-293 clonal cells expressing hGLP-1R, 0.1% bovine casein, without or with 1.0% human serum albumin; design: expressed in transfected cells; conditions: for EC50: cAMP
In short: as §1

[1] = cAMP, 0.1% bovine casein (no human serum albumin), read-out: hGIPR EC50, nM (SEM, n)
[2] = cAMP, 37° C., 0.1% bovine casein (no human serum albumin), geometric mean, read-out: hGCGR EC50, nM (SEM, n)
[3] = cAMP, 37° C., 0.1% bovine casein and 1.0% human serum albumin, geometric mean (SEM, n), read-out: hGCGR EC50, nM (SEM, n)
[4] = 37° C., 0.1% bovine casein (no human serum albumin), geometric mean, read-out: hGLP-1R EC50, nM (SEM, n)

hGLP-1R, sequence (P43220 24-463): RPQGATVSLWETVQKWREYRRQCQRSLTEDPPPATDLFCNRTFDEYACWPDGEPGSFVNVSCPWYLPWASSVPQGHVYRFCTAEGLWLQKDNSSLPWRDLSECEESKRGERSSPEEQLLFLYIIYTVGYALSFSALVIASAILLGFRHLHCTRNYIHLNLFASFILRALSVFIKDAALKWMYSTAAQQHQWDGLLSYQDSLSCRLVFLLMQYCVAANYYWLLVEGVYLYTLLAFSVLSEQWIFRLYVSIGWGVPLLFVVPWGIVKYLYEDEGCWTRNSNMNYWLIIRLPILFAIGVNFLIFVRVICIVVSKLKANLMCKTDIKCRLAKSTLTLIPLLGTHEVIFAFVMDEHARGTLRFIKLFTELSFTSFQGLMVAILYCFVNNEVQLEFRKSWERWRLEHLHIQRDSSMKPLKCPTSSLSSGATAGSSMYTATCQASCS
T2 sequence (P47871 26-477): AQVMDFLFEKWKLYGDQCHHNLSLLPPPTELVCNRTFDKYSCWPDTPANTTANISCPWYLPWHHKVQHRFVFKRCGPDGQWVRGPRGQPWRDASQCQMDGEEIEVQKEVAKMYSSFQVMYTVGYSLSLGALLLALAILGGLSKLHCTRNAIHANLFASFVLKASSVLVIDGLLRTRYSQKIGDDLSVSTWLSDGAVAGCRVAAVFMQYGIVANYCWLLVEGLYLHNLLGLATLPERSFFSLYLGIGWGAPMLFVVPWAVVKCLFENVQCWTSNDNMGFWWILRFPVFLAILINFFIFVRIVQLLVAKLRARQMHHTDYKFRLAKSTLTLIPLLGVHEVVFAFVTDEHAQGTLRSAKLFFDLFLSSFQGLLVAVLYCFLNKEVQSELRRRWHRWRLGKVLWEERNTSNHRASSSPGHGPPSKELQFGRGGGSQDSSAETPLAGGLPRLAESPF

`CC[C@H](C)[C@H](NC(=O)[C@H](CC(C)C)NC(=O)[C@](C)(Cc1ccc(O)cc1)NC(=O)[C@@H](CCC(=O)O)NC(=O)[C@@H](NC(=O)[C@H](Cc1ccccc1)NC(=O)[C@H](CCC(=O)O)NC(=O)C(C)(C)NC(=O)[C@H](CCC(N)=O)NC(=O)[C@H](C)NC(=O)[C@H](CCCCNC(=O)COCCOCCNC(=O)COCCOCCNC(=O)CC[C@H](NC(=O)CCCCCCCCCCCCC(=O)O)C(=O)O)NC(=O)[C@H](CCCN)NC(=O)[C@H](CC(=O)O)NC(=O)[C@H](CC(C)C)NC(=O)[C@](C)(CC(C)C)NC(=O)[C@@H](NC(=O)C(C)(C)NC(=O)[C@H](Cc1ccncc1)NC(=O)[C@H](CC(=O)O)NC(=O)[C@H](CO)NC(=O)[C@@H](NC(=O)[C@](C)(Cc1ccccc1F)NC(=O)[C@@H](NC(=O)CNC(=O)[C@H](CCC(=O)O)NC(=O)C(C)(C)NC(=O)[C@@H](N)Cc1ccc(O)cc1)[C@@H](C)O)[C@@H](C)O)[C@@H](C)CC)[C@@H](C)CC)C(=O)N[C@@H](CCC(=O)O)C(=O)NCC(=O)NCC(=O)N1CCC[C@H]1C(=O)N[C@@H](CO)C(=O)N[C@@H](CO)C(=O)NCC(=O)N[C@@H](C)C(=O)N1CCC[C@H]1C(=O)N1CCC[C@H]1C(=O)N1CCC[C@H]1C(=O)N[C@@H](CO)C(=O)N[C@@H](CCCCNC(=O)COCCOCCNC(=O)COCCOCCNC(=O)CC[C@H](NC(=O)CCCCCCCCCCCCC(=O)O)C(=O)O)C(N)=O` [Example 359] showed an Emax (hGIPR; HEK293, cAMP, 0.1% bovine casein and 1.0% human serum albumin) of 81%, an EC50 (hGIPR; [1]) of 0.0261 nM and an EC50 (hGCGR; [2]) greater than 10100 nM. It also gave an EC50 (hGCGR; [3]) greater than 9950 nM, an Emax (hGLP-1R; HEK293, cAMP, 37° C., 0.1% bovine casein and 1.0% human serum albumin, percent of maximal response to GLP-1(7-36)NH2, read-out: hGLP-1R Emax, % ± SEM) of 95.1% and an EC50 (hGLP-1R; [4]) of 1.18 nM.
In the case of `CC[C@H](C)[C@H](NC(=O)[C@H](CCCN)NC(=O)[C@H](CC(=O)O)NC(=O)[C@H](CC(C)C)NC(=O)[C@](C)(CC(C)C)NC(=O)[C@@H](NC(=O)[C@](C)(CO)NC(=O)[C@H](Cc1ccncc1)NC(=O)[C@H](CC(=O)O)NC(=O)[C@H](CO)NC(=O)[C@@H](NC(=O)[C@](C)(Cc1ccccc1F)NC(=O)[C@@H](NC(=O)CNC(=O)[C@H](CCC(=O)O)NC(=O)C(C)(C)NC(=O)[C@@H](N)Cc1ccc(O)cc1)[C@@H](C)O)[C@@H](C)O)[C@@H](C)CC)C(=O)N[C@@H](C)C(=O)N[C@@H](CCC(N)=O)C(=O)NC(C)(C)C(=O)N[C@@H](CCC(=O)O)C(=O)N[C@@H](Cc1ccccc1)C(=O)N[C@H](C(=O)N[C@@H](CCCCNC(=O)COCCOCCNC(=O)COCCOCCNC(=O)CC[C@H](NC(=O)CCCCCCCCCOc1ccc(C(=O)O)cc1)C(=O)O)C(=O)N[C@@](C)(Cc1ccc(O)cc1)C(=O)N[C@@H](CC(C)C)C(=O)N[C@H](C(=O)N[C@@H](CCCCNC(=O)COCCOCCNC(=O)COCCOCCNC(=O)CC[C@H](NC(=O)CCCCCCCCCOc1ccc(C(=O)O)cc1)C(=O)O)C(=O)NCC(=O)NCC(=O)N1CCC[C@H]1C(=O)N[C@@H](CO)C(=O)N[C@@H](CO)C(=O)NCC(=O)N[C@@H](C)C(=O)N1CCC[C@H]1C(=O)N1CCC[C@H]1C(=O)N1CCC[C@H]1C(=O)N[C@@H](CO)C(N)=O)[C@@H](C)CC)[C@@H](C)CC` [Example 306], the EC50 (hGIPR; hGIPR EC50, nM (SEM, n), 0.1% bovine casein and 1.0% human serum albumin) is reported as 1.12 nM, the EC50 (hGIPR; hGIPR EC50, nM (SEM, n), cAMP, 0.1% bovine casein (no human serum albumin)) is reported as 0.0227 nM and the EC50 (hGCGR; hGCGR EC50, nM (SEM, n), 0.1% bovine casein and 1.0% human serum albumin, 37° C., geometric mean) is reported as greater than 9950 nM. It also gave an EC50 (hGCGR; hGCGR EC50, nM (SEM, n), cAMP, 37° C., 0.1% bovine casein (no human serum albumin), geometric mean) greater than 9950 nM, an Emax (hGLP-1R; HEK293, read-out: hGLP-1R Emax, % ± SEM, cAMP, 37° C., 0.1% bovine casein, percent of maximal response to GLP-1(7-36)NH2, arithmetic mean) of 105% and an EC50 (hGLP-1R; hGLP-1R EC50, nM (SEM, n), 37° C., 0.1% bovine casein (no human serum albumin), geometric mean) of 0.414 nM.
In the case of `CC[C@H](C)[C@H](NC(=O)[C@H](CC(C)C)NC(=O)[C@](C)(Cc1ccc(O)cc1)NC(=O)[C@H](CCCCNC(=O)COCCOCCNC(=O)COCCOCCNC(=O)CC[C@H](NC(=O)CC[C@H](NC(=O)CCCCCCCCCCCCC(=O)O)C(=O)O)C(=O)O)NC(=O)[C@@H](NC(=O)[C@H](Cc1ccccc1)NC(=O)[C@H](CCCN)NC(=O)C(C)(C)NC(=O)[C@H](CCC(N)=O)NC(=O)[C@H](C)NC(=O)[C@H](CCC(N)=O)NC(=O)[C@H](CCCN)NC(=O)[C@H](CC(=O)O)NC(=O)[C@H](CC(C)C)NC(=O)[C@](C)(CC(C)C)NC(=O)[C@@H](NC(=O)C(C)(C)NC(=O)[C@H](Cc1ccc(O)cc1)NC(=O)[C@H](CC(=O)O)NC(=O)[C@H](CO)NC(=O)[C@@H](NC(=O)[C@](C)(Cc1ccccc1F)NC(=O)[C@@H](NC(=O)CNC(=O)[C@H](CCC(=O)O)NC(=O)C(C)(C)NC(=O)[C@@H](N)Cc1ccc(O)cc1)[C@@H](C)O)[C@@H](C)O)[C@@H](C)CC)[C@@H](C)CC)C(=O)N[C@@H](CCCCNC(=O)COCCOCCNC(=O)COCCOCCNC(=O)CC[C@H](NC(=O)CC[C@H](NC(=O)CCCCCCCCCCCCC(=O)O)C(=O)O)C(=O)O)C(=O)NCC(=O)NCC(=O)N1CCC[C@H]1C(=O)N[C@@H](CO)C(=O)N[C@@H](CO)C(=O)NCC(=O)N[C@@H](C)C(=O)N1CCC[C@H]1C(=O)N1CCC[C@H]1C(=O)N1CCC[C@H]1C(=O)N[C@@H](CO)C(N)=O` [Example 480], the EC50 (hGIPR; [1]) is reported as 0.00955 nM, the EC50 (hGCGR; [2]) is reported as greater than 9950 nM and the EC50 (hGCGR; [3]) is reported as greater than 9950 nM. For the same compound, the Emax (hGLP-1R; HEK293, cAMP, 37° C., 0.1% bovine casein, percent of maximal response to GLP-1(7-36)NH2, arithmetic mean, read-out: hGLP-1R Emax, % ± SEM) was 120%, the EC50 (hGLP-1R; [4]) was 0.124 nM and the EC50 (hGLP-1R; 37° C., 0.1% bovine casein and 1.0% human serum albumin, geometric mean (SEM, n), read-out: hGLP-1R EC50, nM (SEM, n)) was 2.65 nM.
`CC[C@H](C)[C@H](NC(=O)[C@H](CCCN)NC(=O)[C@H](CC(=O)O)NC(=O)[C@H](CC(C)C)NC(=O)[C@](C)(CC(C)C)NC(=O)[C@@H](NC(=O)[C@H](CO)NC(=O)[C@H](Cc1ccncc1)NC(=O)[C@H](CC(=O)O)NC(=O)[C@H](CO)NC(=O)[C@@H](NC(=O)[C@](C)(Cc1ccccc1F)NC(=O)[C@@H](NC(=O)CNC(=O)[C@H](CCC(=O)O)NC(=O)C(C)(C)NC(=O)[C@@H](N)Cc1ccc(O)cc1)[C@@H](C)O)[C@@H](C)O)[C@@H](C)CC)C(=O)N[C@@H](C)C(=O)N[C@@H](CCC(N)=O)C(=O)NC(C)(C)C(=O)N[C@@H](CCCCNC(=O)COCCOCCNC(=O)COCCOCCNC(=O)COCCOCCNC(=O)CC[C@H](NC(=O)CCCCCCCCCCCCC(=O)O)C(=O)O)C(=O)N[C@@H](Cc1ccccc1)C(=O)N[C@H](C(=O)N[C@H](CCC(=O)O)C(=O)N[C@@](C)(Cc1ccc(O)cc1)C(=O)N[C@@H](CC(C)C)C(=O)N[C@H](C(=O)N[C@@H](CCCCNC(=O)COCCOCCNC(=O)COCCOCCNC(=O)COCCOCCNC(=O)CC[C@H](NC(=O)CCCCCCCCCCCCC(=O)O)C(=O)O)C(=O)NCC(=O)NCC(=O)N1CCC[C@H]1C(=O)N[C@@H](CO)C(=O)N[C@@H](CO)C(=O)NCC(=O)N[C@@H](C)C(=O)N1CCC[C@H]1C(=O)N1CCC[C@H]1C(=O)N1CCC[C@H]1C(=O)N[C@@H](CO)C(N)=O)[C@@H](C)CC)[C@@H](C)CC` [Example 227] showed an Emax (hGIPR; HEK293, 0.1% bovine casein and 1.0% human serum albumin) of 76.1%, an EC50 (hGCGR; 0.1% bovine casein and 1.0% human serum albumin, 37° C., geometric mean, read-out: hGCGR EC50, nM (SEM, n)) greater than 9950 nM and an EC50 (hGCGR; cAMP, incubated at 37° C., 0.1% bovine casein (no human serum albumin), geometric mean, read-out: hGCGR EC50, nM (SEM, n)) greater than 9950 nM. It also gave an Emax (hGLP-1R; HEK293, 0.1% bovine casein and 1.0% human serum albumin, 37° C., percent of maximal response to GLP-1(7-36)NH2, read-out: hGLP-1R Emax, % ± SEM) of 111%, an Emax (hGLP-1R; HEK293, percent of maximal response to GLP-1(7-36)NH2, 37° C., 0.1% bovine casein, arithmetic mean, read-out: hGLP-1R Emax, % ± SEM) of 96.1% and an EC50 (hGLP-1R; incubated at 37° C., 0.1% bovine casein (no human serum albumin), geometric mean, read-out: hGLP-1R EC50, nM (SEM, n)) of 1.22 nM.
